Measurements published in patent publication US20150017380A1, “ABSORBENT FOOD PAD HAVING DISCRETE AIRFLOW PASSAGES” (Paper-Pak Industries, priority 2013, published 2015).

Experiment: SO2 generation of Na2S2O5 in an open environment
Type: physicochemical
Procedure: FIG. 6A and FIG. 6B show the results of a test that was performed to establish how Na2S2O5 reacts with the environment, and the effect of changes in relative humidity. 0.1 g of Na2S2O5 on sampling “boats” were placed on top of a counter; i.e., in an “open” environment. The concentration of SO2 gas (in parts per million, ppm) in the air at about 2.5 cm (about 1″) above the Na2S2O5 was measured daily for more than 50 days of testing. The relative humidity was also measured for each day of testing.

average SO2 concentration generated (0.1 grams of Na2S2O5, open environment, air about 2.5 cm above the sample, up to 50 days): 0.5 ppm
duration of continuous SO2 generation (conclusion from the several tests): more than 50 days
SMILES: O=S([O-])S(=O)(=O)[O-].[Na+].[Na+] [Na2S2O5, sodium metabisulfite]
